According to patent US11407768B2, “AMPK activators” (Kallyope, Inc., priority 2020, dated 2022):
pEC50: −log10 of the molar value.

Columns and labels:
in vitro = conditions: human; for Papp A→B at 2 h, 2 μM / Papp B→A at 2 h, 2 μM: Caco-2, pH 7.4; for efflux ratio at 2 h, 2 μM: Caco-2, pH 7.4, Efflux Ratio
Method: (§1) Caco-2 cells purchased from ATCC were seeded onto […] (PET) in 96-well BD Insert plates at 1×10^5 cells/cm^2, and refreshed medium every 4-5 days until to the 21st to 28th day for confluent cell monolayer formation. The transport buffer in the study was HBSS with 10 mM HEPES at pH 7.40±0.05. Test compounds were tested at 2 μM bi-directionally in duplicate. Digoxin was tested at 10 μM bi-directionally in duplicate, while nadolol and metoprolol were tested at 2 μM in A to B direction in duplicate. Final DMSO concentration was adjusted to less than 1%.
(§2) The plate was incubated for 2 hours in CO2 incubator at 37±1° C., with 5% CO2 at saturated humidity without shaking. All samples were mixed with acetonitrile containing internal standard and were centrifuged at 4000 rpm for 10 min. Subsequently, 100 μL supernatant solution was diluted with 100 μL distilled water for LC/MS/MS analysis. Concentrations of test and control compounds in starting solution, donor solution, and receiver solution were quantified by LC/MS/MS, using peak area ratio of analyte/internal standard.

Caco-2 cells = experiment: in vitro
Method: as §1, §2

[1] = Pharmacokinetics (oral bioavailability) in C57BL/6 mice; conditions: mouse, in vivo; for bioavailability: IV 1 mg/kg, PO 30 mg/kg; for Vd: following IV administration, 1 mg/kg, read-out: volume of distribution
Method: Selected compounds were tested for pharmacokinetics in C57BL/6 mice. Compounds 1, 4, 31, 32, 40, 55, 57 and 60 were dosed IV at 1 mg/kg as a formulation of 0.2 mg/mL in 5% DMSO+30% PEG400+65% water and were dosed PO at 30 mg/kg as a formulation of 3 mg/mL in 0.25% MC+5% Tween 80+0.02% SDS. Compound 2 was dosed IV at 1 mg/kg as a formulation of 0.2 mg/mL in 5% ethanol +95% saline and was dosed PO at 30 mg/kg as a formulation of 3 mg/mL in 0.25% MC+5% Tween 80+0.02% SDS.

[2] = biological target: Recombinant AMPK α1/β1/γ1 complex (Homo sapiens (Human), UniProt Q13131+Q9Y478); experiment: In vitro pAMPK1 kinase activation assay (ADP-Glo, SAMS peptide); type: biochemical; conditions: AMPK α1/β1/γ1 pre-activated with CAMKK2; 12-point curve; 15 min compound incubation
Summary of the method: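 CAMKK2-pre-activated α1/β1/γ1 complex incubated 15 minutes with compound, then SAMS peptide phosphorylation measured cell-free by ADP-Glo. 12-point concentration curves; EC50 fitted by interpolation to an ATP:ADP standard curve.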

blood glucose levels = experiment: Intraperitoneal (IP) glucose tolerance test in mice; type: in vivo; conditions: for % Change in Average Total AUC (0-90 min) vs. Vehicle: blood glucose, glucose 2 g/kg IP; for change in blood glucose AUC vs. vehicle / systemic AMPK activation (in words): 30 mpk for all compounds, up to 100 mpk for Compound 4
Source text: Systemic AMPK target engagement in vivo can be assessed by measuring the glucose levels in blood following administration of compounds, whereby AMPK activation in skeletal muscle leads in a decrease in overall blood glucose levels.
Compounds were formulated in vehicle (0.25% methyl cellulose, 5% Tween 80, 0.02% sodium dodecyl sulfate (SDS) in Hanks' Buffered Salt Solution with Ca^2+ and Mg^2). Immediately prior to compound dosing, the tip of the tail was removed with scissors and a drop of blood was collected onto a glucometer strip (Bayer Contour Next) for a −1 hour blood glucose measure. The mice were then immediately administered vehicle or compound at 10 mL/kg PO. Approximately one hour later, mice were tail bled for a 0 min blood glucose reading, and then immediately after were administered D(+) glucose (2 g/kg, made up in saline) at 5 mL/kg IP. Tail bleeds were then performed on all mice at 20 min, 40 min, 60 min, and 90 min post D(+) glucose administration for blood glucose measures. Area under the curves (AUCs) for blood glucose measures were then calculated for each treatment from 0-90 mins.

[3] = tested on: Madin-Darby Canine Kidney (MDCK) cells; experiment: In vitro MDCK epithelial permeability assay (calcium switch, FITC-dextran); type: cell-based; conditions: low calcium medium, MDCK monolayers
Source text: In order to quantitatively measure the effects of transporter substrate AMPK activators on epithelial permeability in vitro, standard calcium switch protocols from the literature were adapted for use with Madin-Darby Canine Kidney (MDCK) cells grown on Corning Transwell inserts for use with fluorescein isothiocyanate-dextran, average molecular weight 4 kDa (FITC-dextran). FITC-dextran is a large, metabolically inert sugar molecule that is not readily transferrable across healthy epithelial barriers in vitro or in vivo. This compound has been tagged with a fluorophore to easily track its movement.
Briefly, MDCK cells were seeded onto Transwell inserts and grown according to manufacturer instructions until confluent. On the day of the experiment, a baseline reading was taken in standard growth media in which FITC-dextran was spiked into the apical chamber and the percent permeation of FITC-dextran from the apical to the basolateral chamber was measured. The inserts were then washed in low calcium medium (LCM) containing either vehicle or compound to remove residual FITC-dextran and calcium, and FITC-dextran was once again spiked into the apical chamber and the percent permeation in LCM was measured. […] The fold induction of FITC-dextran permeation to the basolateral chamber when each well was transferred from baseline growth media to LCM was then calculated.

[4] = tested on: Acute Dextran Sulfate Sodium (DSS) Colitis Model; experiment: Intestinal barrier function in mouse acute DSS colitis model (FITC-dextran); type: in vivo, C57B1/6 mice; conditions: 30 mg/kg QD oral; 3% DSS 7 days; serum FITC-dextran
Method: Compounds were formulated in vehicle (0.25% methyl cellulose, 5% Tween 80, 0.02% sodium dodecyl sulfate (SDS) in Hanks' Buffered Salt Solution with Ca^2+ and Mg^2+). Vehicle or compound was administered once daily by oral gavage to C57B1/6 mice. After 3 days of pre-dosing, dextran sulfate sodium (DSS) was simultaneously administered at 3% in drinking water, and appropriate water-only controls were included.
After 7 days of DSS administration, animals treated were switched back to their regular water source and administered a single oral bolus dose of FITC-dextran (FD) four hours prior to necropsy. The animals were sacrificed by cardiac puncture and serum was collected. The concentration of […] present in serum was determined by measuring fluorescence intensity on a standard plate reader, and fitting values back to a standard curve.

[5] = tested on: Chemotherapy-induced Intestinal Injury Model; experiment: Diarrhea in mouse chemotherapy-induced (5FU) intestinal injury model; type: in vivo, BALB/c mice; conditions: 5FU 400 mg/kg IP; for Diarrhea Score Day 5 / Diarrhea Score Day 6: score 0-3
Method: Compounds were formulated in vehicle (0.25% methyl cellulose, 5% Tween 80, 0.02% sodium dodecyl sulfate (SDS) in Hanks' Buffered Salt Solution with Ca' and Mg'). On day 1, either saline or a 400 mg/kg dose of 5-fluorouracil (5FU) in saline was administered by intraperitoneal injection to BALB/c mice. Starting on day 2, vehicle or compound was administered twice a day by oral gavage. From days 5 to 6 post-5FU, the animals were scored for diarrhea severity once a day. The diarrhea was scored 0-3 as follows: 0—normal consistency (black and solid), 1—soft (black and a bit lighter/yellow), 2—loosely shaped stool (yellowish and somewhat watery), 3—extreme diarrhea (very watery).

[6] = Caco-2, pH 7.4, Mean Recovery A to B
[7] = Caco-2, pH 7.4, Mean Recovery B to A

Sequence of Recombinant AMPK α1/β1/γ1 complex (Q13131 whole entry): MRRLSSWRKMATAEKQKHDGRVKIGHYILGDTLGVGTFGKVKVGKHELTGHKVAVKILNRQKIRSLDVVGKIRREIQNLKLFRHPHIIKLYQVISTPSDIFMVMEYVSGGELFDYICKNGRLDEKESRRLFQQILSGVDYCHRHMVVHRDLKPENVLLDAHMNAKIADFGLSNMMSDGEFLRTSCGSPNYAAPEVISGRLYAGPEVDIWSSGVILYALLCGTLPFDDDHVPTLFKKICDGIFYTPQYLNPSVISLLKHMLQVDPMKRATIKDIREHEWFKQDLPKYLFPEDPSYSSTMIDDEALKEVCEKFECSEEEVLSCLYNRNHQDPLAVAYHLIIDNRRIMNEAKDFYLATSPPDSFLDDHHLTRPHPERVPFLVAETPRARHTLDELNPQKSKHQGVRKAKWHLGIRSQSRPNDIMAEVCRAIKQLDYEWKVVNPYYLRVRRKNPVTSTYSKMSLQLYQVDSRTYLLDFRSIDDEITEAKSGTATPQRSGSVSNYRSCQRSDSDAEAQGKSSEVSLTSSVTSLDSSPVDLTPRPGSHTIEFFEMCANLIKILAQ
Sequence of Recombinant AMPK α1/β1/γ1 complex (Q9Y478 whole entry): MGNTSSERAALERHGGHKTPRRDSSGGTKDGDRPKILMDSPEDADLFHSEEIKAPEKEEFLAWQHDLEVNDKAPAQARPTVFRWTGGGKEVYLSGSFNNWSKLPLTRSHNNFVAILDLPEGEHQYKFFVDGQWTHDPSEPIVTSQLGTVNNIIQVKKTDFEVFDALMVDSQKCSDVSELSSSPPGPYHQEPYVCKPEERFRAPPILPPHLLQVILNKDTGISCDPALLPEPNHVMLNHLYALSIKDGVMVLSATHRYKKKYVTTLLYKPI
Sequence of Recombinant AMPK α1/β1/γ1 complex (P54619 whole entry partner): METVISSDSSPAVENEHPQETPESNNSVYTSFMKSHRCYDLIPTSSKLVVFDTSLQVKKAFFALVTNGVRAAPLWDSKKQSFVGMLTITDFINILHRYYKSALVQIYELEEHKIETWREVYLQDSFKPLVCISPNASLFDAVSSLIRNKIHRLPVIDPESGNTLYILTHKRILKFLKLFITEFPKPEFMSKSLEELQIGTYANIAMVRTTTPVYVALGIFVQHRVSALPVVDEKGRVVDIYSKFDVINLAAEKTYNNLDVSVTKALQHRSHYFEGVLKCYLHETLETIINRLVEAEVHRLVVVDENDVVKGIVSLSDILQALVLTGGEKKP

Structure (SMILES)	Papp A→B at 2 h, 2 μM (in vitro)	Papp B→A at 2 h, 2 μM (in vitro)	efflux ratio at 2 h, 2 μM (in vitro)	recovery at 2 h, 2 μM (in vitro; [6])	recovery at 2 h, 2 μM (in vitro; [7])	permeability (in words) (Caco-2 cells; Caco-2)	bioavailability [1]	Vd [1]	pEC50 [2]	% Change in Average Total AUC (0-90 min) vs. Vehicle (blood glucose levels; 30 mpk PO)	change in blood glucose AUC vs. vehicle / systemic AMPK activation (in words) (blood glucose levels)	Change in Fluorescence Intensity vs. Vehicle [4]	half-life [1]	further results
O=C(NC[C@H](O)[C@@H](O)[C@H](O)[C@H](O)CO)c1ccc(-c2ccc(-c3nc4nc(O[C@@H]5CO[C@H]6[C@@H]5OC[C@H]6O)[nH]c4cc3Cl)cc2)cc1 [Compound 1, 4′-(6-chloro-2-(((3R,3aR,6R,6aR)-6-hydroxyhexahydrofuro[3,2-b]furan-3-yl)oxy)-1H-imidazo [4,5-b]pyridin-5-yl)-N-((2S,3R,4R,5R)-2,3,4,5,6-pentahydroxyhexyl)-[1,1′-biphenyl]-4-carboxamide]	< 0.25 ×10⁻⁶ cm/s	0.73 ×10⁻⁶ cm/s	> 2	< 82.6%	89.9%	low permeability	< 1%	< 5 L/kg	10.30	−7.5%	do not lead to activation of AMPK in skeletal muscle			Efflux Ratio (Caco-2 cells; human, Caco-2, 2 h, 2 μM, pH 7.4): >2.90; reduction of FITC-dextran permeation relative to vehicle ([3]; 0.1 μM): 33%; reduction of FITC-dextran permeation relative to vehicle ([3]; 10 μM): 35%
O=P(O)(O)c1ccc(-c2ccc(-c3nc4nc(O[C@@H]5CO[C@H]6[C@@H]5OC[C@H]6O)[nH]c4cc3Cl)cc2)cc1 [Compound 2, (4′-(6-chloro-2-(((3R,3aR,6R,6aR)-6-hydroxyhexahydrofuro[3,2-b]furan-3-yl)oxy)-1H-imidazo[4,5-b]pyridin-5-yl)-[1,1′-biphenyl]-4-yl)phosphonic acid]							< 1%	< 5 L/kg	8.85	+6.6%	do not lead to activation of AMPK in skeletal muscle			
OC[C@@H](O)[C@@H](O)[C@H](O)[C@@H](O)CNCc1ccc(-c2ccc(-c3nc4nc(O[C@@H]5CO[C@H]6[C@@H]5OC[C@H]6O)[nH]c4cc3Cl)cc2)cc1 [Compound 4, (2R,3R,4R,5S)-6-(((4′-(6-chloro-2-(((3R,3aR,6R,6aR)-6-hydroxyhexahydrofuro[3,2-b]furan-3-yl)oxy)-1H-imidazo[4,5-b]pyridin-5-yl)-[1,1′-biphenyl]-4-yl)methyl)amino)hexane-1,2,3,4,5-pentaol]	< 0.48 ×10⁻⁶ cm/s	0.71 ×10⁻⁶ cm/s	> 1.48	< 99.6%	102%	low permeability	< 1%	< 1 L/kg	10.00	−0.9%	do not lead to activation of AMPK in skeletal muscle	−43%	1.4 h	Diarrhea Score Day 5, % Change vs. Vehicle ([5]; 3 mpk BID oral): −16%; Diarrhea Score Day 6, % Change vs. Vehicle ([5]; 3 mpk BID oral): −44%; Diarrhea Score Day 5 ([5]; 3 mpk BID oral): 0.75; Diarrhea Score Day 6 ([5]; 3 mpk BID oral): 1.00; Diarrhea Score Day 5, % Change vs. Vehicle ([5]; 10 mpk BID oral): −72%; Diarrhea Score Day 6, % Change vs. Vehicle ([5]; 10 mpk BID oral): −79%; Diarrhea Score Day 5 ([5]; 10 mpk BID oral): 0.25; Diarrhea Score Day 6 ([5]; 10 mpk BID oral): 0.38; % Change in Average Total AUC (0-90 min) vs. Vehicle (blood glucose levels; 100 mpk PO): +2.3%
O=C(NCCOCCO)c1ccc(-c2ccc(-c3cc4nc(O[C@@H]5CO[C@H]6[C@@H]5OC[C@H]6O)[nH]c4cc3Cl)cc2)cc1 [Compound 31, 4′-(6-chloro-2-(((3R,3aR,6R,6aR)-6-hydroxyhexahydrofuro[3,2-b]furan-3-yl)oxy)-1H-benzo[d]imidazol-5-yl)-N-(2-(2-hydroxyethoxy)ethyl)-[1,1′-biphenyl]-4-carboxamide]	0.115 ×10⁻⁶ cm/s	31.7 ×10⁻⁶ cm/s		83.2%	97.8%	low permeability	< 10%	< 5 L/kg	9.07			−41%	1.7 h	Diarrhea Score Day 5, % Change vs. Vehicle ([5]; 30 mpk BID oral): −67%; Diarrhea Score Day 6, % Change vs. Vehicle ([5]; 30 mpk BID oral): −61%; Diarrhea Score Day 5 ([5]; 30 mpk BID oral): 0.43; Diarrhea Score Day 6 ([5]; 30 mpk BID oral): 0.63
CC(C)(C)NCC(O)COc1cccc2c1CC(O)C(O)C2 (stereo not drawn) [Nadolol, nadolol, reference compound]														Mean Recovery A to B (Caco-2 cells; Caco-2): 97.74%; Mean Papp A to B (Caco-2 cells; Caco-2, pH 7.4): 0.08 10^−6 cm/s
